According to the supplement of paper PMC10627819:

Key:
Test in all cases: fitness (endpoint OD595 vs no drug) (fraction); higher = more growth
S. aureus DSM 20231 = tested on: S. aureus DSM 20231
How it was run: (§1)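 With the first reading as background, OD595 was measured every 30 min for 14 h in 384-well plates kept at 37 °C and inoculated at OD595 0.01. TSB, LB Lennox or CY was the medium. Fitness is the optical density at the transition into stationary phase divided by the robust mean of no-drug control wells, with a cap of 1.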

S. aureus Newman = tested on: S. aureus Newman
How it was run: as §1

S. pneumoniae D39V = tested on: S. pneumoniae D39V
How it was run: as §1

B. subtilis 168 = conditions: main component drawn
How it was run: as §1

[1] = first compound 0.0156 µg/mL, partner 1 µg/mL
[2] = first compound 0.0312 µg/mL, partner 1 µg/mL
[3] = first compound 0.0625 µg/mL, partner 1 µg/mL
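Further: OD595 on entry to stationary phase over no-drug wells; at most 1.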

Structure (SMILES): CO[C@@]12[C@H](COC(N)=O)C3=C(C(=O)C(C)=C(N)C3=O)N1C[C@@H]1N[C@@H]12 [Mitomycin C] + COc1cc(Cc2cnc(N)nc2N)cc(OC)c1OC [Trimethoprim]
- fitness (S. aureus DSM 20231; first compound 0.0156 µg/mL, partner 0.125 µg/mL): 0.6
- fitness (S. aureus DSM 20231; first compound 0.0156 µg/mL, partner 0.25 µg/mL): 0.506
- fitness (S. aureus DSM 20231; first compound 0.0156 µg/mL, partner 0.5 µg/mL): 0.0394
- fitness (S. aureus DSM 20231; [1]): 0.0198
- fitness (S. aureus DSM 20231; first compound 0.0312 µg/mL, partner 0.125 µg/mL): 0.604
- fitness (S. aureus DSM 20231; first compound 0.0312 µg/mL, partner 0.25 µg/mL): 0.485
- fitness (S. aureus DSM 20231; first compound 0.0312 µg/mL, partner 0.5 µg/mL): 0.0541
- fitness (S. aureus DSM 20231; [2]): 0.0233
- fitness (S. aureus DSM 20231; first compound 0.0625 µg/mL, partner 0.125 µg/mL): 0.491
- fitness (S. aureus DSM 20231; first compound 0.0625 µg/mL, partner 0.25 µg/mL): 0.279
- fitness (S. aureus DSM 20231; first compound 0.0625 µg/mL, partner 0.5 µg/mL): 0.0513
- fitness (S. aureus DSM 20231; [3]): 0.0116

Structure (SMILES): CC[C@H](C)[C@H](N)C1=N[C@H](C(=O)N[C@@H](CC(C)C)C(=O)N[C@H](CCC(=O)O)C(=O)N[C@H](C(=O)N[C@H]2CCCCNC(=O)[C@H](CC(N)=O)NC(=O)[C@@H](CC(=O)O)NC(=O)[C@H](Cc3cnc[nH]3)NC(=O)[C@@H](Cc3ccccc3)NC(=O)[C@H]([C@@H](C)CC)NC(=O)[C@@H](CCCN)NC2=O)[C@@H](C)CC)CS1 [Bacitracin] + CO[C@@]12[C@H](COC(N)=O)C3=C(C(=O)C(C)=C(N)C3=O)N1C[C@@H]1N[C@@H]12 [Mitomycin C]
- fitness (S. aureus Newman; first compound 18.75 µg/mL, partner 0.0156 µg/mL, main component drawn): 0.56
- fitness (S. aureus Newman; first compound 18.75 µg/mL, partner 0.0312 µg/mL, main component drawn): 0.419
- fitness (S. aureus Newman; first compound 18.75 µg/mL, partner 0.0625 µg/mL, main component drawn): 0.229
- fitness (S. aureus Newman; first compound 37.5 µg/mL, partner 0.0312 µg/mL, main component drawn): 0.0317
- fitness (S. aureus Newman; first compound 37.5 µg/mL, partner 0.0625 µg/mL, main component drawn): 0.0144
- fitness (S. aureus Newman; first compound 75 µg/mL, partner 0.0156 µg/mL, main component drawn): 0.0457
- fitness (S. aureus Newman; first compound 75 µg/mL, partner 0.0312 µg/mL, main component drawn): 0.0152
- fitness (S. aureus Newman; first compound 75 µg/mL, partner 0.0625 µg/mL, main component drawn): 0

Structure (SMILES): CC[C@H](C)[C@H](N)C1=N[C@H](C(=O)N[C@@H](CC(C)C)C(=O)N[C@H](CCC(=O)O)C(=O)N[C@H](C(=O)N[C@H]2CCCCNC(=O)[C@H](CC(N)=O)NC(=O)[C@@H](CC(=O)O)NC(=O)[C@H](Cc3cnc[nH]3)NC(=O)[C@@H](Cc3ccccc3)NC(=O)[C@H]([C@@H](C)CC)NC(=O)[C@@H](CCCN)NC2=O)[C@@H](C)CC)CS1 [Bacitracin] + CC1(C)S[C@@H]2[C@H](NC(=O)Cc3ccccc3)C(=O)N2[C@H]1C(=O)O [Penicillin G]
- fitness (S. aureus Newman; first compound 18.75 µg/mL, partner 0.0195 µg/mL, main component drawn): 0.642
- fitness (S. aureus Newman; first compound 18.75 µg/mL, partner 0.039 µg/mL, main component drawn): 0.698
- fitness (S. aureus Newman; first compound 18.75 µg/mL, partner 0.078 µg/mL, main component drawn): 0.69
- fitness (S. aureus Newman; first compound 37.5 µg/mL, partner 0.0195 µg/mL, main component drawn): 0.35
- fitness (S. aureus Newman; first compound 37.5 µg/mL, partner 0.039 µg/mL, main component drawn): 0.2
- fitness (S. aureus Newman; first compound 75 µg/mL, partner 0.0195 µg/mL, main component drawn): 0.018
- fitness (S. aureus Newman; first compound 75 µg/mL, partner 0.039 µg/mL, main component drawn): 0.0199
- fitness (S. aureus Newman; first compound 75 µg/mL, partner 0.078 µg/mL, main component drawn): 0.0358

Structure (SMILES): CO[C@@]12[C@H](COC(N)=O)C3=C(C(=O)C(C)=C(N)C3=O)N1C[C@@H]1N[C@@H]12 [Mitomycin C] + CN(C)c1cc(NC(=O)CNC(C)(C)C)c(O)c2c1C[C@H]1C[C@H]3[C@H](N(C)C)C(O)=C(C(N)=O)C(=O)[C@@]3(O)C(O)=C1C2=O [Tigecycline]
- fitness (S. aureus Newman; first compound 0.0156 µg/mL, partner 0.039 µg/mL): 0.7
- fitness (S. aureus Newman; first compound 0.0156 µg/mL, partner 0.078 µg/mL): 0.725
- fitness (S. aureus Newman; first compound 0.0156 µg/mL, partner 0.156 µg/mL): 0.746
- fitness (S. aureus Newman; first compound 0.0312 µg/mL, partner 0.039 µg/mL): 0.661
- fitness (S. aureus Newman; first compound 0.0312 µg/mL, partner 0.078 µg/mL): 0.655
- fitness (S. aureus Newman; first compound 0.0312 µg/mL, partner 0.156 µg/mL): 0.679
- fitness (S. aureus Newman; first compound 0.0625 µg/mL, partner 0.039 µg/mL): 0.551
- fitness (S. aureus Newman; first compound 0.0625 µg/mL, partner 0.078 µg/mL): 0.558
- fitness (S. aureus Newman; first compound 0.0625 µg/mL, partner 0.156 µg/mL): 0.505
- fitness (S. pneumoniae D39V; first compound 0.001075 µg/mL, partner 0.65 µg/mL): 0.89
- fitness (S. pneumoniae D39V; first compound 0.001075 µg/mL, partner 1.3 µg/mL): 0.877
- fitness (S. pneumoniae D39V; first compound 0.001075 µg/mL, partner 2.6 µg/mL): 0.893
- fitness (S. pneumoniae D39V; first compound 0.002 µg/mL, partner 0.65 µg/mL): 0.878
- fitness (S. pneumoniae D39V; first compound 0.002 µg/mL, partner 1.3 µg/mL): 0.888
- fitness (S. pneumoniae D39V; first compound 0.002 µg/mL, partner 2.6 µg/mL): 0.816
- fitness (S. pneumoniae D39V; first compound 0.00215 µg/mL, partner 0.65 µg/mL): 0.848
- fitness (S. pneumoniae D39V; first compound 0.00215 µg/mL, partner 1.3 µg/mL): 0.859
- fitness (S. pneumoniae D39V; first compound 0.00215 µg/mL, partner 2.6 µg/mL): 0.844
- fitness (S. pneumoniae D39V; first compound 0.004 µg/mL, partner 0.65 µg/mL): 0.804
- fitness (S. pneumoniae D39V; first compound 0.004 µg/mL, partner 1.3 µg/mL): 0.764
- fitness (S. pneumoniae D39V; first compound 0.004 µg/mL, partner 2.6 µg/mL): 0.806
- fitness (S. pneumoniae D39V; first compound 0.0043 µg/mL, partner 0.65 µg/mL): 0.819
- fitness (S. pneumoniae D39V; first compound 0.0043 µg/mL, partner 1.3 µg/mL): 0.822
- fitness (S. pneumoniae D39V; first compound 0.0043 µg/mL, partner 2.6 µg/mL): 0.783
- fitness (S. pneumoniae D39V; first compound 0.008 µg/mL, partner 0.65 µg/mL): 0.688
- fitness (S. pneumoniae D39V; first compound 0.008 µg/mL, partner 1.3 µg/mL): 0.625
- fitness (S. pneumoniae D39V; first compound 0.008 µg/mL, partner 2.6 µg/mL): 0.627

Structure (SMILES): CO[C@@]12[C@H](COC(N)=O)C3=C(C(=O)C(C)=C(N)C3=O)N1C[C@@H]1N[C@@H]12 [Mitomycin C] + CN[C@@H]1[C@H](O[C@H]2[C@H](O[C@H]3[C@H](O)[C@@H](O)[C@H](N=C(N)N)[C@@H](O)[C@@H]3N=C(N)N)O[C@@H](C)[C@]2(O)C=O)O[C@@H](CO)[C@H](O)[C@H]1O [Streptomycin]
- fitness (S. aureus Newman; [1]): 0.727
- fitness (S. aureus Newman; first compound 0.0156 µg/mL, partner 2 µg/mL): 0.683
- fitness (S. aureus Newman; [2]): 0.666
- fitness (S. aureus Newman; first compound 0.0312 µg/mL, partner 2 µg/mL): 0.677
- fitness (S. aureus Newman; first compound 0.0312 µg/mL, partner 4 µg/mL): 0.523
- fitness (S. aureus Newman; [3]): 0.473
- fitness (S. aureus Newman; first compound 0.0625 µg/mL, partner 2 µg/mL): 0.402
- fitness (S. aureus Newman; first compound 0.0625 µg/mL, partner 4 µg/mL): 0.272
- fitness (S. pneumoniae D39V; first compound 0.001075 µg/mL, partner 2 µg/mL): 0.883
- fitness (S. pneumoniae D39V; first compound 0.001075 µg/mL, partner 4 µg/mL): 0.913
- fitness (S. pneumoniae D39V; first compound 0.001075 µg/mL, partner 8 µg/mL): 0.939
- fitness (S. pneumoniae D39V; first compound 0.002 µg/mL, partner 2 µg/mL, one replicate): 0.857
- fitness (S. pneumoniae D39V; first compound 0.002 µg/mL, partner 4 µg/mL): 0.857
- fitness (S. pneumoniae D39V; first compound 0.002 µg/mL, partner 8 µg/mL): 0.802
- fitness (S. pneumoniae D39V; first compound 0.002 µg/mL, partner 16 µg/mL, one replicate): 0.711
- fitness (S. pneumoniae D39V; first compound 0.00215 µg/mL, partner 2 µg/mL): 0.838
- fitness (S. pneumoniae D39V; first compound 0.00215 µg/mL, partner 4 µg/mL): 0.827
- fitness (S. pneumoniae D39V; first compound 0.00215 µg/mL, partner 8 µg/mL): 0.834
- fitness (S. pneumoniae D39V; first compound 0.004 µg/mL, partner 2 µg/mL, one replicate): 0.749
- fitness (S. pneumoniae D39V; first compound 0.004 µg/mL, partner 4 µg/mL): 0.712
- fitness (S. pneumoniae D39V; first compound 0.004 µg/mL, partner 8 µg/mL): 0.668
- fitness (S. pneumoniae D39V; first compound 0.004 µg/mL, partner 16 µg/mL, one replicate): 0.544
- fitness (S. pneumoniae D39V; first compound 0.0043 µg/mL, partner 2 µg/mL): 0.701
- fitness (S. pneumoniae D39V; first compound 0.0043 µg/mL, partner 4 µg/mL): 0.741
- fitness (S. pneumoniae D39V; first compound 0.0043 µg/mL, partner 8 µg/mL): 0.717
- fitness (S. pneumoniae D39V; first compound 0.008 µg/mL, partner 2 µg/mL, one replicate): 0.666
- fitness (S. pneumoniae D39V; first compound 0.008 µg/mL, partner 4 µg/mL): 0.54
- fitness (S. pneumoniae D39V; first compound 0.008 µg/mL, partner 8 µg/mL): 0.56
- fitness (S. pneumoniae D39V; first compound 0.008 µg/mL, partner 16 µg/mL, one replicate): 0.304

Structure (SMILES): CC[C@H](C)[C@H](N)C1=N[C@H](C(=O)N[C@@H](CC(C)C)C(=O)N[C@H](CCC(=O)O)C(=O)N[C@H](C(=O)N[C@H]2CCCCNC(=O)[C@H](CC(N)=O)NC(=O)[C@@H](CC(=O)O)NC(=O)[C@H](Cc3cnc[nH]3)NC(=O)[C@@H](Cc3ccccc3)NC(=O)[C@H]([C@@H](C)CC)NC(=O)[C@@H](CCCN)NC2=O)[C@@H](C)CC)CS1 [Bacitracin] + O=C(O)[C@H]1/C(=C/CO)O[C@@H]2CC(=O)N21 [Clavulanic acid]
- fitness (B. subtilis 168; first compound 37.5 µg/mL, partner 1.5 µg/mL): 0.906
- fitness (B. subtilis 168; first compound 37.5 µg/mL, partner 3 µg/mL): 0.86
- fitness (B. subtilis 168; first compound 37.5 µg/mL, partner 6 µg/mL): 0.795
- fitness (B. subtilis 168; first compound 75 µg/mL, partner 1.5 µg/mL): 0.915
- fitness (B. subtilis 168; first compound 75 µg/mL, partner 3 µg/mL): 0.838
- fitness (B. subtilis 168; first compound 75 µg/mL, partner 6 µg/mL): 0.734
- fitness (S. aureus Newman; first compound 18.75 µg/mL, partner 0.03125 µg/mL, one replicate, main component drawn): 0.682
- fitness (S. aureus Newman; first compound 18.75 µg/mL, partner 0.0625 µg/mL, one replicate, main component drawn): 0.673
- fitness (S. aureus Newman; first compound 18.75 µg/mL, partner 0.125 µg/mL, one replicate, main component drawn): 0.686
- fitness (S. aureus Newman; first compound 37.5 µg/mL, partner 0.03125 µg/mL, one replicate, main component drawn): 0.298
- fitness (S. aureus Newman; first compound 37.5 µg/mL, partner 0.0625 µg/mL, one replicate, main component drawn): 0.251
- fitness (S. aureus Newman; first compound 37.5 µg/mL, partner 0.125 µg/mL, one replicate, main component drawn): 0.219
- fitness (S. aureus Newman; first compound 75 µg/mL, partner 0.03125 µg/mL, one replicate, main component drawn): 0.0064
- fitness (S. aureus Newman; first compound 75 µg/mL, partner 0.0625 µg/mL, one replicate, main component drawn): 0.0152
- fitness (S. aureus Newman; first compound 75 µg/mL, partner 0.125 µg/mL, one replicate, main component drawn): 0.0264
